Converted amounts (≈) assume the structure as drawn.
What was measured:
[1] = tested on: AML2 cell line; assay: Cell killing assay (cytotoxicity) of IQB-CBI dimers, AML2; type: cell-based; details: 72 h; AML2 cells; 3-day incubation
Procedure: (§1) Cytotoxicity of D801, D803, D05, D807, D809, D811, D813, D815 and D817 were tested against AML2 and HL60 cell lines. Cell killing assay was performed after 3-day incubation with various IQB-CBI dimers.

[2] = tested on: HL60 cell line; assay: Cell killing assay (cytotoxicity) of IQB-CBI dimers, HL60; type: cell-based; details: Homo sapiens, HL-60, 72 h; HL60 cells; 3-day incubation
Procedure: as §1

[3] = target: T1, human interleukin 1 receptor accessory protein (IL1RAP) (human, UniProt Q9NPH3 21-570); assay: flow cytometry (MFI, anti-human APC secondary) on HL-60, EOL1 and SK-MEL-5 cells expressing IL1RAP
T1 construct: The target is carried by human cell lines: EOL1 at high copy number, HL-60 and SK-MEL-5 at low copy number
T1 sequence: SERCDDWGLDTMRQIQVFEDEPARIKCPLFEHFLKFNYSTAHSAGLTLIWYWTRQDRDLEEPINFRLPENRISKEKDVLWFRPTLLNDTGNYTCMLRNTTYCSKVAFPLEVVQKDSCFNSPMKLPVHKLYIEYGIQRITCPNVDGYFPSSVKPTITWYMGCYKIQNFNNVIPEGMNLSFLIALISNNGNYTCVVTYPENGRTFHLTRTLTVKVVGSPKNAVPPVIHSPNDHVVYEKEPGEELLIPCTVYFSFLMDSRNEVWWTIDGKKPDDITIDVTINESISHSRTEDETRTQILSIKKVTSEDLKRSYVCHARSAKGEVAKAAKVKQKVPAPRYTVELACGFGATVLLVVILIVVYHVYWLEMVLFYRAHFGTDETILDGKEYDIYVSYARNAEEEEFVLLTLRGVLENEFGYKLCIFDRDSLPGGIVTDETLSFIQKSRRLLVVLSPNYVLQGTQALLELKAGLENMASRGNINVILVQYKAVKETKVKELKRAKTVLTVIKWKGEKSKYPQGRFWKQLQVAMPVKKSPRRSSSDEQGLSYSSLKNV
Source text: FIGS. 15 and 16 show binding, as a function of mean fluorescent intensity, of humanized (hu3G7) or chimeric (Chi3G7) anti-IL1RAP antibody to various cell lines. HL-60 cells (human promyelocytic leukemia cells), EOL1 cells (human eosinophilic leukemia cells) and SK-MEL-5 cells (human melanoma cell line) express IL1RAP, and EOL1 cells do so with high expression. C0 antibody is a non-binding control IgG1. D212 is a composition having the formula: […]
The cells were resuspended in binding buffer (PBS, 2% FBS)) containing 5% NHS (normal human serum) to 2 ×10^6 cells/mL. To 50 µL of cells, 50 µL of primary antibody/ADC was added and incubated at 4° for 30 min. After incubation, cells were wasked with binding buffer 2 times and then resuspended and incubated with second antibody (anti-human APC, 1:400 in the binding buffer) at 4° for 30 min. Cells were washed with binding buffer and resuspended in 200 uL of binding buffer with propidium iodide. Cells were immediately applied to flow cytometry for analysis. Mean fluorescence intensity (MFI) of the stained sample was measured.

Molecule: COc1cc2c(cc1OCCCCCC(=O)N1CC(CCl)c3c1cc(O)c1ccccc31)N=C[C@@H]1Cc3ccccc3CN1C2=O (stereo partly drawn) [D813, (6aS)-3-((6-(1-(chloromethyl)-5-hydroxy-1,2-dihydro-3H-benzo[e]indol-3-yl)-6-oxohexyl)oxy)-2-methoxy-7,12-dihydrobenzo[5,6][1,4]diazepino[1,2-b]isoquinolin-14(6aH)-one]
- IC50 [1]: 0.00028 ng/mL (≈ 0.000439 nM)
- IC50 [2]: 0.00072 ng/mL (≈ 0.00113 nM)

B1: humanized, cys-substituted (S156C) anti-IL1RAP antibody 3G7 (hu3G7), tested as antibody and as IQB-CBI antibody-drug conjugates (antibody, human IgG1, kappa, V domains shown)
VH: EVQLVQSGAEVKKPGASVKISCKASGYTFTNYGMHWVRQAPGQGLEWMGWINTYTGEPTYAQKFQGRFTFTLDTSTSTAYLEIRSLRSDDTAVYYCARYYGNFDYWGQGTLLTVSS
VL: EIVMTQSPATLSVSPGERATLSCRASQSISNNLHWYQQKPGQAPRLLIYYASQSISGIPARFSGSGSGTEFTLTISSLQSEDFAVYYCQQSHNWPHTFGQGTKLEIKR
modifications: IQB-CBI dimer linker-payload (D816, D818, D820, D822, D824, D826 or D828) attached by maleimide to the substituted cysteine (S156C); DAR 1.7-2.0
notes: also called 3G7-S156C-CYSMAB; hu3G7-IQB-CBI
- binding result [3]: binds

B2: chimeric, cys-substituted (S156C) anti-IL1RAP antibody 3G7 (Chi3G7; human constant domain, mouse variable domain), tested as antibody and as IQB-CBI … (antibody, V domains shown)
VH: QIQLVQSGPELKKPGETVKISCKASGYTFTNYGMHWVKQSPGEGLKWMGWINTYTGEPTYADDFKGRFGFSLETSASSAYLQINDLKNEDMATYFCARYYGNFDYWGQGTTLTVSS
VL: DIVLTQSPATLSVTPGDSVSLSCRASQSISNNLHWYQQKSHESPRLLIKYASQSISGIPSRFSGSGSGTDFTLSINSVETEDFGVYFCQQSHNWPHTFGGGTKLEIKR
modifications: IQB-CBI dimer linker-payload (D816, D818, D820, D822, D824, D826 or D828) on the substituted cysteine S156C of the heavy chain constant region (constant region sequence not given)
notes: also called Chi3G7-(IQB-CBI) ADC; Chi3G7-CLT-(IQB-CBI) ADC
- binding result [3]: binds
